Source: article PMC8022203 (ACS infectious diseases, 2021)

Molecular target: HadA (Mycobacterium tuberculosis, UniProt P9WFK1)
Format: binding

Chain of HadA (P9WFK1 whole entry): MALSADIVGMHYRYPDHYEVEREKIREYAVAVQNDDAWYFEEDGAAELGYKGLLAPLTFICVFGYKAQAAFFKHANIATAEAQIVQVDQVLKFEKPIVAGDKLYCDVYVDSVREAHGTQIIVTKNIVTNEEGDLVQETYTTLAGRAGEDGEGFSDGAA

Question: With `CCN(CC)c1ccc2cc(-c3ccc(/C=N/NC(N)=S)s3)c(=O)oc2c1` [Coum-TAC, (E)-((5-(7-((N,N)-diethylamino)-2-oxo-2H-chromen-3-yl)thiophen-2-yl)methylene)hydrazine-1-carbothioamide] as the compound, how does the “UV-vis, fluorescence and ESI mass spectrometry of re-purified HadA” value read?
Answer: EthA promotes the formation of a covalent adduct between Coum-TAC and HadA
